According to patent US9636307B2, “Oral pharmaceutical composition comprising taste-masked N-acetylcysteine” (HERMES ARZNEIMITTEL GMBH, priority 2013, dated 2017):

Legend:
[1] = Decomposition during processing of the material (sulphurous smell); assay type: physicochemical; conditions: between about 40 and 48° C. compared to working at above 50° C.; evident by reduced sulphurous smell
[2] = Stability testing of N-acetylcysteine by headspace gas chromatography; assay type: physicochemical

- decomposition of N-acetylcysteine [1]: notably suppressed
- sulphur species detectable by headspace gas chromatography ([2]; sample treated at 40° C. for 2 hours): no sulphur species are detectable
Compound: CC(=O)N[C@@H](CS)C(=O)O [N-acetylcysteine, N-acetyl-L-cysteine]
- sulphur species detectable by headspace gas chromatography ([2]; sample subjected to 60° C. for 2 hours): two sulphurous species, acetyl mercaptane and s-ethyl ethanthioate, were detected
